Test [1] concerns proteasome trypsin-like activity. The test can be described thus: Proteasome-Glo trypsin-like activity. The conditions noted are these: C33a cells, 2 hrs, 10 μM or 30 μM. Type of test: cell-based.
The subject of test [2] is proteasome chymotrypsin-like activity. The test can be described thus: Proteasome-Glo chymotrypsin-like activity. The note with it: C33a cells, 2 hrs, 10 μM or 30 μM. Format: cell-based.
Test [3] has as its system p53-Luc. Put plainly: TE6 p53-Luc targeted degradation reporter in C33a cells. Format: cell-based. The conditions noted are these: C33a cells expressing p53-Luc and TE6. The protocol: Adenoviruses were generated using the RAPAd CMV adenoviral expression system (Cellbiolabs, San Diego, CA). High-throughput screening was performed at the University of Illinois High-Throughput Screening Facility. For each group, 1x 10^7 C33a cells were plated in 150 mm^2 dishes in 20 ml cDMEM. For p53xTE6 group, 1 x 10^8 GFU/mL of p53-Luc adenovirus and 1 x 10^9 GFU/mL TE6 adenovirus were plated. For RbxTE7 group, 1 x 10^8 GFU/mL of p60RbRen adenovirus and 1 x 10^9 GFU/mL of βTrCP-E7 adenovirus were added. For control group, Ad-Red was substituted for TE6 or TE7 adenovirus in the p53 control and Rb control, respectively. […] Positive hits were scored as ≥ 2-fold above vehicle treated p53-Luc wells.
For the in vitro assay, E6 was cloned into the pMAL vector in frame with the maltose binding protein. […] We measured luciferase activity after 30 minutes. For the trypsin and chymotrypsin assay, C33a cells were incubated for 2 hours with the indicated compounds at 10 μM and assessed for chymotrypsin and trypsin activity using Proteasome-Glo assay (Promega). […] After incubation, cells were lysed and luciferase activity measured and p53 levels measured by Western blot.

Test [4] deals with C33a cells. The test can be described thus: Cell viability (Cell Titer Glo), C33a. The conditions noted are these: for IC50: C33a cells, 48 hrs, Cell Titer Glo. Format: cell-based. As for the experimental part: (§1) For the viability assays, 20,000 C33a, HeLa, or siHA cells were plated in white 96 well flat bottom plates. The cells were treated with compounds at concentrations from 0.5 to 30 μM for 48 hrs. After incubation, Cell Titer Glo (Promega) was added to the cells and luminescence read in a Tecan II plate reader. For annexin V and PI staining, 500,000 C33a cells were treated with inhibitor for 24 hrs. The cells were stained with Annexin V-FITC and PI according to eBioscience manufacturer’s instructions and analyzed by flow cytometry.
A general note: In ATP-based viability assays light output follows the ATP content of the culture.

A further test has as its system HeLa cells. Put plainly: Cell viability (Cell Titer Glo), HeLa. The conditions noted are these: for IC50: HeLa cells, 48 hrs, Cell Titer Glo. Format: cell-based. The protocol:
as §1

The target in test [5] is T1, p53 (Homo sapiens, UniProt P04637, R273C).
T1 construct: endogenous in cells; host or cells: C33a
The test can be described thus: Nuclear/cytoplasmic fractionation and Western analysis of p53. Format: cell-based. The conditions noted are these: C33a cells, 6 hrs, Western. As for the experimental part: For nuclear/cytoplasmic fractionation, 1 × 10^7 C33a cells were treated with 30 μM compound for 6 hrs. The cells were washed with PBS and lysed in 1000 μL of cytoplasmic extraction buffer (10 mM KCl, 10 mM HEPES, pH 7.9, 0.1 mM EDTA, 1 mM dithiothreitol) and incubated on ice for 20 min. 50 μL of 10% NP-40 was added to each lysate, vortexed and then centrifuged at 12,000 × g for 10 min. The cytosolic fraction was collected and the pellet containing the nuclei suspended in 50 μL of nuclear extraction buffer (0.4 M NaCl, 20 mM HEPES, pH 7.9, 1 mM EDTA). The nuclear fraction was incubated for 30 min on ice. The samples were spun at 14,000 × g for 10 min and the supernatants were collected. To concentrate the cytoplasmic fraction, 500 μL methanol, and 200 μL chloroform were added and the samples were vortexed, centrifuged for 10 min at 14,000 × g, and the upper and lower layer were discarded. The solid interphase was collected and suspended in 50 μL of lysis buffer. Equal cell equivalents were loaded on a gel and electrophoresed. For whole cell lysates, C33a cells were lysed with a modified RIPA buffer and subjected to SDS-PAGE electrophoresis. The gels were transferred to nitrocellulose and blots probed with antibodies for p53 (Santa Cruz, antibody FL-303), lamin A/C, and calnexin (Santa Cruz Biotechnology).

In another test the test system is PUMA. Put plainly: PUMA transcription by qRT-PCR. Type of test: cell-based. The conditions noted are these: 30 μM, 8h. The source says:
(§2) RNA from C33a and HeLa was isolated by Trizol and reverse transcribed using the first strand synthesis kit from NEB. Primers for p53, GAPDH and PUMA were used for quantitative real-time PCR (qRT-PCR). Primer sequences include: PUMA (forward primer: CTCAACGCACAGTACGAG and reverse primer: […]), FAS (forward primer: TCTGCCATAAGCCCTGT and reverse primer: GTCTGTGTACTCCTTCCCT), p21 (forward primer: […] and reverse primer: […]), and BAX (forward primer: […] and reverse primer: […]). ΔΔCt values were determined for PUMA using GAPDH to normalize data. Bio-rad SYBR green was used for the amplification and detection of the PCR products on an iCycler (Bio-rad).
A general note: Quantitative PCR measures a nucleic acid by following its amplification.

The next test concerns p21, BAX and FAS. Put plainly: p53 target gene expression (p21, BAX, FAS) by qRT-PCR. Type of test: cell-based. The note with it: HeLa cells, 8h.
From the text: as §2

The target of test [6] is T1, p53. Put plainly: p53 nuclear localization by immunofluorescence. Format: cell-based. The conditions noted are these: C33a cells, 30 μM, 8 hrs. The protocol: C33a cells were plated into chamber slides and treated with 30 μM of compounds 3 or, 4 for 4, or 8 hours. As a control, 30 μM cisplatin was used. The cells were fixed with 2.5% formaldehyde for 30 minutes, followed by permeabilization with 0.01% Triton X100 for 30 minutes. Cells were blocked with 5% goat serum for 30 minutes and stained overnight with anti-p53 (Santa Cruz, antibody FL-303) or anti-phospho-H2A.X (cell signaling) in 1% FCS in PBS at 4°. The following day, the cells were washed with PBS and incubated for 45 minutes with anti-rabbit-FITC and DAPI in 1% FCS in PBS. The cells were washed and mounted with ProLong Gold.

Test [7] concerns C33a cells. Put plainly: Cell viability after p53 siRNA knockdown. Format: cell-based. The note with it: p53 siRNA vs scrambled, 10 μM, 48 hrs. The protocol: C33a cells were transfected with 100 pmol siRNA for p53 (Dharmacon, L-003329-00-0005) or AllStar control (Qiagen) using lipofectamine2000 according to manufacturer’s instructions. The cells were incubated for 24 hrs and then split and incubated with 10 μM compounds. Cell viability was measured after 48 hours by Cell Titer Glo. Efficiency of knockdown was determined by quantitative RT-PCR using SYBR green.

The subject of test [8] is p53-Luc. The test can be described thus: In vitro E6 degradation assay (recombinant E6 with p53-Luc lysates). Type of test: biochemical. The note with it: 50 ng recombinant E6, 10 μM compound, C33a lysates, 6 hours. As for the experimental part: For the in vitro assay, E6 was cloned into the pMAL vector in frame with the maltose binding protein. The E6 was expressed in bacteria and purified on amylose column. C33a cells were transfected with p53-Luc and incubated overnight. 50 ng recombinant E6 was incubated with 10 μM compound and C33a lysates for 6 hours at 30 degrees. We measured luciferase activity after 30 minutes. For the trypsin and chymotrypsin assay, C33a cells were incubated for 2 hours with the indicated compounds at 10 μM and assessed for chymotrypsin and trypsin activity using Proteasome-Glo assay (Promega). For the in vivo degradation assay, C33a cells expressing Ad-TE6 and Ad-p53 or expressing Ad-TE7 and Ad-Rb-Ren were treated for 8 hours with compounds. After incubation, cells were lysed and luciferase activity measured and p53 levels measured by Western blot.

The subject of another test is siHA cells. The test can be described thus: Cell viability (Cell Titer Glo), siHA. Type of test: cell-based. The note with it: 48h. The protocol:
as §1

Where a SMILES comes first, the peptide text is derived from it. The star is where a group is joined. Cbz = O=C(OCc1ccccc1)*

Take `CC(C)C[C@@H](C=O)NC(=O)[C@H](CC(C)C)NC(=O)[C@H](CC(C)C)NC(=O)OCc1ccccc1` [MG132, reference compound] (Cbz-Leu-Leu-Leu-aldehyde): the trypsin-like proteasome activity result in test [1] is reported as “significantly inhibited”. For the same compound, in test [2], the chymotrypsin-like proteasome activity result is “significantly inhibited”.
Consider `OCc1ccc(-c2ccc(-c3ccc(CO)s3)o2)s1` [RITA], for which the “restoration of p53-Luc luciferase activity” value in the test with p53-Luc [3] is “did not restore p53-Luc activity”.
On the same count and under the same terms, under `CC(C)C[C@H](NC(=O)[C@H](Cc1ccccc1)NC(=O)c1cnccn1)B(O)O` [bortezomib] stands “restored p53-Luc luciferase activity”.
As for `N.N.[Cl][Pt][Cl]` [cisplatin, reference compound], the IC50 was 24 µM in the test with C33a cells [4] and 4.6 µM with HeLa cells.
`Cc1cccc(/C=C/c2ccc3cccc(O)c3n2)c1O` [compound 3]: the trypsin-like proteasome activity entry in test [1] is “did not significantly reduce”. Besides, on p53 [5], the “nuclear accumulation of p53 in nuclear fraction compared to vehicle” value was “higher levels of nuclear accumulation of p53”. Moreover, the results for the PUMA transcription upregulation in the test on PUMA (C33a cells) and in the test with PUMA (HeLa cells) were 3.92±0.27 fold and 4.35±0.22 fold, respectively. The chymotrypsin-like proteasome activity entry in [2] was “did not significantly reduce”. For the same compound, in the test with p21, BAX and FAS, the “expression of p21, BAX and FAS” value is recorded as “induced expression”. Further, at p53 [6], the “p53 nuclear accumulation, % of cell nuclei” value was 51.1±2.18 % of cell nuclei. Also, the “effect of p53 gene knockdown on C33a sensitivity to compound” value in the test on C33a cells [7] is “significantly reversed”. In the test with p53-Luc [8], the “restoration of p53 levels in vitro” value is given as “restored p53 levels in vitro to similar levels as the proteasome inhibitor MG132”. The “cell viability at 30 μM” value is given as “decreased viability” in the test on siHA cells; “decreased viability” with C33a cells [4] (C33a, 30 μM, 48h); “decreased viability” in the test with HeLa cells (HeLa, 30 μM, 48h). The 50% inhibitory concentration (IC50) with C33a cells [4] was determined as 3.8 µM; in the test with HeLa cells, 6 µM.
Take `COc1cc(/C=C/c2ccc3cccc(O)c3n2)cc(Br)c1OC` [compound 37]: in the test with p21, BAX and FAS, the “expression of p21, BAX and FAS” value is “induced expression”.

The term IC50 denotes the concentration that inhibits the measured activity by half.

For the origin of these results see article PMC4849654, “A High-Throughput Cell-Based Screen Identified a 2-[(E)-2-Phenylvinyl]-8-Quinolinol Core Structure That Activates p53” (PLoS ONE, 2016).
